Assays:
[1] = biological target: Human immunodeficiency virus type 1 protease (Human immunodeficiency virus 1, UniProt Q72874); experiment: Compound was tested for its inhibitory potency against human immunodeficiency virus -1 (HIV-1 protease)
MT4 = experiment: Inhibitory activity against HIV-1 virus in MT-4 human T-lymphoid cells; format: functional; conditions: read-out: ID50 (the source's name)
[2] = tested on: Human immunodeficiency virus 1; experiment: Compound was tested for its antiviral potency against human immunodeficiency virus type 1; format: functional; conditions: read-out: ID50 (the source's name)
[3] = biological target: Human immunodeficiency virus type 1 protease (Human immunodeficiency virus 1) (UniProt Q72874)

Row | Structure (SMILES) | Ki [1] | further results
1 | O=C(NC(Cc1ccccc1)C(O)CN1C/C=C\CCCCCCCC(c2ccccc2)OC1=O)O[C@H]1CO[C@H]2OCC[C@H]21 (some centres not stated) | 229 nM | 
2 | O=C(NC(Cc1ccccc1)C(O)CN1CCCCCCCCCCCCC(c2ccccc2)OC1=O)O[C@H]1CO[C@H]2OCC[C@H]21 (some centres not stated) | 268 nM | 
3 | CC1CCCCCCCCCCOC(=O)N(CC(O)C(Cc2ccccc2)NC(=O)O[C@H]2CO[C@H]3OCC[C@H]32)C1 (some centres not stated) | 6.1 nM | IC50 (MT4): 2500 nM
4 | O=C(NC(Cc1ccccc1)C(O)CN1CCCCCCCCC/C=C/CC(c2ccccc2)OC1=O)O[C@H]1CO[C@H]2OCC[C@H]21 (some centres not stated) | 167 nM | 
5 | O=C(NC(Cc1ccccc1)C(O)CN1CCCCCCCCCCCC(c2ccccc2)OC1=O)O[C@H]1CO[C@H]2OCC[C@H]21 (some centres not stated) | 357 nM | 
6 | CC1CCCCCCCCCCCOC(=O)N1CC(O)C(Cc1ccccc1)NC(=O)O[C@H]1CO[C@H]2OCC[C@H]21 (some centres not stated) | 30 nM | 
7 | CC1C/C=C/CCCCCCCCOC(=O)N(CC(O)C(Cc2ccccc2)NC(=O)O[C@H]2CO[C@H]3OCC[C@H]32)C1 (some centres not stated) | 11 nM | 
8 | CC(C)(C)NC(=O)[C@@H]1C[C@@H]2CCCC[C@@H]2CN1CC(O)C(Cc1ccccc1)NC(=O)O[C@H]1CO[C@H]2OCC[C@H]21 (some centres not stated) | 2 nM | IC50 [2]: 50 nM
9 | C=CCCCCCCCCOC(=O)N(CC=C)CC(O)C(Cc1ccccc1)NC(=O)O[C@H]1CO[C@H]2OCC[C@H]21 (some centres not stated) | > 1000 nM | 
10 | C=CCCCCCCCC(OC(=O)N(CC=C)CC(O)C(Cc1ccccc1)NC(=O)O[C@H]1CO[C@H]2OCC[C@H]21)c1ccccc1 (some centres not stated) | > 1000 nM | 
11 | C=CCCCCCCCCOC(=O)N(CC(O)C(Cc1ccccc1)NC(=O)O[C@H]1CO[C@H]2OCC[C@H]21)C(C)CC=C (some centres not stated) | > 1000 nM | 
12 | CC1C/C=C\CCCCCCCCCOC(=O)N1CC(O)C(Cc1ccccc1)NC(=O)O[C@H]1CO[C@H]2OCC[C@H]21 (some centres not stated) | 53 nM | 
13 | C=CCCCCCCC(OC(=O)N(CCCCC=C)CC(O)C(Cc1ccccc1)NC(=O)O[C@H]1CO[C@H]2OCC[C@H]21)c1ccccc1 (some centres not stated) | 444 nM | 
14 | O=C(NC(Cc1ccccc1)C(O)CN1CCCCCCCCCCC(c2ccccc2)OC1=O)O[C@H]1CO[C@H]2OCC[C@H]21 (some centres not stated) | 189 nM | 
15 | CC(C)(C)NC(=O)[C@@H]1C[C@@H]2CCCC[C@@H]2CN1C[C@@H](O)[C@H](Cc1ccccc1)NC(=O)[C@H](CC(N)=O)NC(=O)c1ccc2ccccc2n1 |  | ID50 [3]: 18 nM
16 | O=C(NC(Cc1ccccc1)C(O)CN1CCCC/C=C/CCCCCCC(c2ccccc2)OC1=O)O[C@H]1CO[C@H]2OCC[C@H]21 (some centres not stated) | 162 nM | 
17 | O=C(NC(Cc1ccccc1)C(O)CN1C/C=C\CCCCCCCCOC1=O)O[C@H]1CO[C@H]2OCC[C@H]21 (some centres not stated) | 125 nM | 
18 | O=C(NC(Cc1ccccc1)C(O)CN1CCCCCCCCCCCCOC1=O)O[C@H]1CO[C@H]2OCC[C@H]21 (some centres not stated) | 14 nM | 
19 | C=CCCCCCCCCN(CC(O)C(Cc1ccccc1)NC(=O)O[C@H]1CO[C@H]2OCC[C@H]21)C(=O)OCCC=C (some centres not stated) | > 1000 nM | 
20 | COc1ccc(S(=O)(=O)N(CC(C)C)CC(O)C(Cc2ccccc2)NC(=O)O[C@H]2CO[C@H]3OCC[C@H]32)cc1 (some centres not stated) | 0.015 nM | IC50 [2]: 1.4 nM
21 | O=C(NC(Cc1ccccc1)C(O)CN1CCCCCCCCC/C=C/CCOC1=O)O[C@H]1CO[C@H]2OCC[C@H]21 (some centres not stated) | 88 nM | 
22 | C=CCCCCCCCCN(CC(O)C(Cc1ccccc1)NC(=O)O[C@H]1CO[C@H]2OCC[C@H]21)C(=O)OC(CC=C)c1ccccc1 (some centres not stated) | > 1000 nM | 
23 | C=CCCCCCCCOC(=O)N(CC(C)CC=C)CC(O)C(Cc1ccccc1)NC(=O)O[C@H]1CO[C@H]2OCC[C@H]21 (some centres not stated) | > 1000 nM | 
24 | O=C(NC(Cc1ccccc1)C(O)CN1CCCCCCCCCCCOC1=O)O[C@H]1CO[C@H]2OCC[C@H]21 (some centres not stated) | 80 nM | 

Source: ChEMBL document CHEMBL1135191, “Novel cyclourethane-derived HIV protease inhibitors: a ring-closing olefin metathesis based strategy” (Bioorg Med Chem Lett, 2002)
